Columns and labels:
Type in all cases: physicochemical
[1] = Solubility of the esters (statements of the description); conditions: qualitative
[2] = Photolysis / cleavage of the esters to dicamba (statements of the description); conditions: qualitative
Description: The efficacy of the photolabile esters can be assayed in vitro, or in greenhouse or field experiments. A useful in vitro assay for post-emergent activity involves photolysis of a dilute solution of the esters using simulated sunlight. This is conveniently achieved by photolysis of a solution of the ester in an organic solvent which is miscible with water and to which some water has been added. As described in the Examples, photolysis in acetonitrile or tetrahydrofuran containing 10% water by weight is effective. Low concentrations of the ester should be used so that the entire volume is exposed to sunlight. Since the maximum extinction coefficient of the typical esters above 220 nm is in the range of 1000-10,000 M^−1 cm^−1, a concentration of 0.1 mM is effective. Photolysis in a quartz tube exposed to simulated or actual sunlight is a typical protocol.

[3] = In vitro photo-release and hydrolytic release of dicamba in an aqueous medium (Example 36); conditions: 0.01 mM (0.005 mM for diesters)
Experimental: This Example describes the determination of photo-lability and hydrolytic lability of dicamba esters in an aqueous medium. 1 mM solutions of the esters were prepared in acetonitrile (or […] solutions of dicamba diesters). The solutions were then diluted with deionized water to a concentration of 0.01 mM (or 0.005 mM for diesters). The solutions were then transferred to quartz tubes and amber bottles and held in a growth chamber by the procedure of Example 26. A 14-hour day was generally used at a constant temperature of 35° C. Hydrolytic activity was assessed by measuring the increase in dicamba concentration after day zero in the amber (dark) bottles. […] Photolysis manifested itself as increased conversion in the quartz tubes compared to the dark control.
This Example provides the results of an aqueous lability test following the protocol of Example 35 for several dicamba esters which convert to dicamba primarily by hydrolysis. As shown by the results in the table below, conversion of the dark controls generally equaled or exceeded conversion in the photolysis solutions.

Row | Compound | solubility, in words [1] | cleavage to form dicamba, in words [2] | Conversion to Dicamba, Dark, Day 0 ([3]; amber (dark) bottle, Day 0) | Conversion to Dicamba, Dark, Day 1 ([3]; amber (dark) bottle, Day 1) | Conversion to Dicamba, Dark, Day 2 ([3]; amber (dark) bottle, Day 2) | Conversion to Dicamba, Dark, Day 3 ([3]; amber (dark) bottle, Day 3) | Conversion to Dicamba, Dark, Day 4 ([3]; amber (dark) bottle, Day 4) | Conversion to Dicamba, Dark, Day 7 ([3]; amber (dark) bottle, Day 7) | Conversion to Dicamba, Dark, Day 14 ([3]; amber (dark) bottle, Day 14) | Conversion to Dicamba, Dark, Day 21 ([3]; amber (dark) bottle, Day 21) | Conversion to Dicamba, Dark, Day 28 ([3]; amber (dark) bottle, Day 28) | Conversion to Dicamba, Light, Day 0 ([3]; quartz tube, Day 0) | Conversion to Dicamba, Light, Day 1 ([3]; quartz tube, Day 1) | Conversion to Dicamba, Light, Day 2 ([3]; quartz tube, Day 2) | Conversion to Dicamba, Light, Day 3 ([3]; quartz tube, Day 3) | Conversion to Dicamba, Light, Day 4 ([3]; quartz tube, Day 4) | Conversion to Dicamba, Light, Day 7 ([3]; quartz tube, Day 7) | Conversion to Dicamba, Light, Day 14 ([3]; quartz tube, Day 14) | Conversion to Dicamba, Light, Day 21 ([3]; quartz tube, Day 21) | Conversion to Dicamba, Light, Day 28 ([3]; quartz tube, Day 28)
1 | COc1c(Cl)ccc(Cl)c1C(=O)Oc1nnc(OC(=O)c2c(Cl)ccc(Cl)c2OC)c2ccccc12 [Ester 18, Phthalhydrazide Diester of Dicamba] | highly insoluble | undergo efficient cleavage to form dicamba |  |  |  |  |  |  |  |  |  |  |  |  |  |  |  |  |  | 
2 | COc1c(Cl)ccc(Cl)c1C(=O)Oc1ccc(=O)n(CCC#N)n1 [Ester 34a] | insoluble solid |  | 3% | 9% | 14% | 18% | 23% | 38% | 56% | 71% | 87% | 3% | 10% | 14% | 16% | 20% | 29% | 48% | 60% | 71%
